One experiment concerns IFN61-B2-101 line. The experiment in a line: Cryopreservation success rate after dormancy induction in sugar-supplemented medium. The experiment is classed as in vivo, Lemna minor. Here is the method:
Lemna minor duckweed plants were cultured on Schenk and Hildebrandt media with 20 mg/ml sucrose at an aerial temperature of between 21° C. and 30° C. and light levels ranging from 200 μM·M^−2·sec^−1 to 450 μM·M^−2·sec^−1 for 1 day up to 1 year. Three frond colonies (each frond colony comprised one or more daughter fronds attached to the mother frond) were aseptically transferred into a 2.0-mL cryovial containing a 900 μL solution of Schenk and Hildebrandt media, […] step. The frond colonies were incubated in this sugar solution for 21-30 days. Each 24-hour photoperiod was comprised of fluctuations in temperature and light levels. Specifically, the daytime hours consisted of culturing the duckweed frond colony at an aerial temperature of 10° C. with a light level of about 25 μM·M^−2·sec^−1 to about 50 μM·M^−2·sec^−1 for a duration of 3 hours, followed by an aerial temperature of 15° C. at a light level of about 25 μM·M^−2·sec^−1 to about 75 μM·M^−2·sec^−1 for a duration of 6 hours, and an aerial temperature of 10° C. with a light level of about 25 μM^−2·sec^−1 to about 50 μM·M^−2·sec^−1 for a duration of 3 hours. During the nighttime hours of the 24-hour photoperiod, the duckweed frond colonies were cultured at an aerial temperature of 4° C. in the absence of light for a duration of 12 hours.
The duckweed frond colonies were dehydrated in a laminar flow hood in 900 μL of a cryoprotective solution, comprising 1.92 M DMSO, […], 3.26 M glycerol, and 0.4 M sucrose at pH 5.8. The cryovials were incubated in this solution at 4° C. for 30 minutes to 2 hours in the absence of light. Following the incubation, the cryoprotective solution was removed and replaced with 900 μL of fresh cryoprotective solution.
The duckweed frond colonies were frozen in a slow rate freezer according to the following freezing protocol. The cryovials containing the duckweed frond colonies were held at 4° C. and the temperature was lowered to −4° C. at 1° C. per minute, to −40° C. at 25° C. per minute, and then raised to −12° C. at 10° C. per minute. The temperature was again lowered to −40° C. at 1° C. per minute, to −90° C. at 10° C. per minute, and then lowered to −150° C. at 10° C. per minute. Once frozen, the vials containing the frond colonies were transferred to the vapor phase of liquid nitrogen for storage.
After up to 17 months in storage, the frozen duckweed frond colonies were thawed and recovered as follows. The vials containing the frozen duckweed frond colonies were transferred from the liquid nitrogen storage tank to a laminar flow hood and were thawed at room temperature for approximately ten minutes. The cryoprotective solution was removed and replaced with 900 μL of Schenk and Hildebrandt medium, supplemented with 1.2 M sucrose, followed by a ten minute incubation at room temperature. The 1.2 M sucrose was subsequently diluted by a series of five dilutions whereby 450 μL of the 1.2 M sucrose solution was removed and replaced with 450 μL of Schenk and Hildebrandt medium supplemented with 20 mg/ml sucrose. Following the serial dilutions, the frond colonies were transferred to a petri dish with Schenk and Hildebrandt medium, supplemented with 10 mg/ml sucrose and 1% (weight/volume) agar. The duckweed frond colonies were cultured at an aerial temperature of between 21° C. and 30° C. with light levels ranging from about 20 μM·M^−2·sec^−1 to about 100 μM·M^−2·sec^−1 for 7-14 days prior to calculating the success rate of the cryopreservation procedure.
The cryopreservation success rate was calculated by the total number of visible daughter fronds (or daughter fronds with viable tissue) to survive the freezing process and successfully reproduce new daughter fronds as a percentage of the total number of visible daughter fronds that were frozen. Viability of tissue or of daughter fronds was assessed by the presence of green tissue and the ability of these fronds or frond tissues to reproduce and generate new daughter fronds. […]

A further experiment has as its system L. minor. The experiment is described as above. The class given is in vivo, Lemna minor.
The mark [1] stands for this setting: sugars at two concentrations: 90 mg/ml (1X) and 270 mg/ml (3X), listed as Sucrose 1X.
[2] abbreviates: sugars at two concentrations: 90 mg/ml (1X) and 270 mg/ml (3X), listed as Sucrose 3X.
Where [3] appears, read: various concentrations of six sugar combination: total sugar 90 (1X), 216 (2.4X), 342 mg/ml (3.8X), or 20 mg/ml sucrose.

On to `OC[C@H]1O[C@@](CO)(O[C@H]2O[C@H](CO)[C@@H](O)[C@H](O)[C@H]2O)[C@@H](O)[C@@H]1O` [Sucrose, sucrose], for which the Cryopreservation success rate in the experiment with IFN61-B2-101 line (setting [1]) is given as 89.5%; in the experiment on IFN61-B2-101 line (setting [2]), 0%; in the experiment with IFN61-B2-101 line (setting [3]), 100%; in the experiment with L. minor (dormancy induction 7-Day, 4° C. with no light), 0% (0/28); with L. minor (dormancy induction 7-Day, 9-10° C. with no light) it was 14.82% (4/27); in the experiment on L. minor (dormancy induction 7-Day, fluctuating temperature and light), 33.3% (9/27). Also, the Cryopreservation success rate with L. minor (dormancy induction 7-Day, fluctuating temperature with no light) is reported as 65.39% (17/26); in the experiment with L. minor (dormancy induction 14-Day, 4° C. with no light) it was 0% (0/22); in the experiment on L. minor (dormancy induction 14-Day, 9-10° C. with no light), 73.08% (19/26); in the experiment with L. minor (dormancy induction 14-Day, fluctuating temperature and light) it was 96% (24/25); in the experiment on L. minor (dormancy induction 14-Day, fluctuating temperature with no light), 100% (24/24); in the experiment on L. minor (dormancy induction 21-Day, 4° C. with no light) it was 4.17% (1/24). In addition, the Cryopreservation success rate is 91.67% (22/24) in the experiment with L. minor (dormancy induction 21-Day, 9-10° C. with no light); 86.96% (20/23) in the experiment on L. minor (dormancy induction 21-Day, fluctuating temperature with no light); 0% (0/20) in the experiment on L. minor (dormancy induction 28-Day, 4° C. with no light); 97.37% (37/38) with L. minor (dormancy induction 28-Day, 9-10° C. with no light); 94.29% (33/35) in the experiment on L. minor (dormancy induction 28-Day, fluctuating temperature and light); 100% (30/30) in the experiment on L. minor (dormancy induction 28-Day, fluctuating temperature with no light). In addition, the Cryopreservation success rate is given as 42.3% (11/26) in the experiment on L. minor (first set of experiments, single sugars 90 mg/ml unless the label says 20 mg/ml, six sugar combo 15 mg/ml each, listed as 20 mg/ml Sucrose); 43.8% (7/16) in the experiment with L. minor (second set of experiments, single sugars 90 mg/ml unless the label says 20 mg/ml, six sugar combo 15 mg/ml each, listed as 20 mg/ml Sucrose); 88.9% (16/18) in the experiment with L. minor (setting [1]); 0% (0/11) with L. minor (setting [2]); 92.9% (26/28) in the experiment on L. minor (setting [3]).
